Experiments:
mucus = assay: PAS staining of lung tissue, OVA-induced asthma; assay type: in vivo, BALB/c mice; conditions: 5 days, vs OVA-sensitized group
Protocol: In test groups, the animals determined to be healthy during the acclimation period were ranked by measuring the weight, and were randomly grouped so that the average weight of each group was uniform. The animals were divided into a total of 9 groups: a control group; a control group with OVA-induced asthma; a positive control group; groups administered with each of 50 mg/kg, 125 mg/kg and 250 mg/kg of oleic acid; and groups administered with each of 5 mg/kg, 25 mg/kg and 50 mg/kg of palmitic acid. The animals were sensitized via intraperitoneal injection of OVA once a week for 2 weeks after the acclimation period. During 5 days of week 3, dexamethasone (DEX) and the test substances oleic acid and palmitic acid were orally administered in the morning and 5% OVA solution was inhaled in the afternoon. The test substance was orally administered in an amount of 28 μL per weight (g) of the experimental animal, and OVA for sensitization was administered in a constant amount regardless of the weight. After 5 days of administration, autopsy was performed the next day.
Storage of tissue: ½ of the autopsy tissue was frozen quickly in liquid nitrogen, stored in an ultralow-temperature freezer or liquid nitrogen container (about −75 ° C.), and used for PCR/Western blotting, and the remaining ½ was stored in 10% formalin solution and used for histopathology and immunohistochemistry (IHC). […]

[1] = test system: WBC cells, eosinophils, neutrophils, lymphocytes and monocytes in BALF; assay: Blood cell analysis in BALF of mice with OVA-induced asthma; assay type: in vivo, BALB/c mice; conditions: for proliferation of leukocytes, neutrophils, lymphocytes and monocytes in BALF and serum: summary statement, ovalbumin-induced asthma
Protocol: This experiment was performed in order to examine the anti-asthmatic effects of fatty acids after inducing asthma in experimental animals by ovalbumin (OVA). Experimental animals used in the experiment were chosen because of the accumulated abundant test data and their ease of analysis and evaluation of experimental results. BALB/c mice, which are specific pathogen […] (SPF) mice, were chosen based on the related literature. Experimental animals were provided in the minimum number so as to be able to analyze experimental results and were divided into a total of 9 groups according to the substance to be administered, and each group consisted of 8 animals. […] In test groups, the animals determined to be healthy during the acclimation period were ranked by measuring the weight, and were randomly grouped so that the average weight of each group was uniform. The animals were divided into a total of 9 groups: a control group; a control group with OVA-induced asthma; a positive control group; groups administered with each of 50 mg/kg, 125 mg/kg and 250 mg/kg of oleic acid; and groups administered with each of 5 mg/kg, 25 mg/kg and 50 mg/kg of palmitic acid. The animals were sensitized via intraperitoneal injection of OVA once a week for 2 weeks after the acclimation period. During 5 days of week 3, dexamethasone (DEX) and the test substances oleic acid and palmitic acid were orally administered in the morning and 5% OVA solution was inhaled in the afternoon. The test substance was orally administered in an amount of 28 μL per weight (g) of the experimental animal, and OVA for sensitization was administered in a constant amount regardless of the weight. After 5 days of administration, autopsy was performed the next day. Intraperitoneal administration: based on the related literature, 20 μg OVA+1 mg aluminum hydroxide+500 μL/head of normal saline were administered. For a total of 50 animals to be administered, 1000 μg OVA+50 mg aluminum hydroxide+25 mL of normal saline were prepared. The animals were sensitized by intraperitoneal injection once a week for 2 weeks, and injected with the test substance by a 1 mL syringe. Oral administration: the control group and the asthma-induced control group were administered with saline, and oleic acid and palmitic acid were used in dissolved in saline at various concentrations. Dexamethasone was dissolved in saline by stirring and prepared according to a final dose. All preparations were prepared on the day of administration. Inhalation: a solution containing 1 g OVA+20 mL normal saline (5% OVA solution) was prepared, stirred and administered. A forced inhalation was performed using a nebulizer (OMRON, NE-U17) for 5 days, and systemic exposure was performed using an inhalation exposure chamber. Collection of bronchoalveolar lavage fluid (BALF): the anesthetized animal tissue was opened with tweezers to secure the trachea, and then a surgical thread was placed underneath and loosely tied, and the trachea was slightly cut with scissors. Then, 0.2 mL of PBS was placed into a syringe with the needle removed, and the syringe was inserted into a sonde and then injected into the trachea. After injection, BALF was collected by injecting PBS again. 0.2 mL of BALF was collected three times in the same manner. The first BALF was placed in tube No. 1, the second and third BALFs were placed in tube No. 2. The blood cell analysis in BALF were performed (Lee et al., 2017; Bang et al., 2015). One day after the final treatment, the mice were anesthetized with intraperitoneal injections of 50 mg/kg Zoletin (Virbac, Fort Worth, Tex., USA), and their tracheas were cannulated with disposable animal feeding needles. Lavages were performed with three 0.4 ml aliquots of cold phosphate-buffered saline (PBS). The BALF samples were collected and immediately centrifuged at 3000 rpm for 5 minutes at 4° C. (Sorvall Legend Micro 17R, Thermo Fisher Scientific, Inc. Marietta, Ohio, USA). […]

Structure (SMILES)	mucus (PAS staining) (mucus; palmitic acid 5, 25, 50 mg/kg oral, FIG. 18)	number of differential cells in BALF ([1]; palmitic acid 5, 25, 50 mg/kg oral, 5 days, FIG. 7)	number of WBC cells ([1]; palmitic acid 5, 25, 50 mg/kg oral, 5 days, vs OVA-sensitized group, FIG. 8)	number of neutrophils (NEs) ([1]; palmitic acid 5, 25, 50 mg/kg oral, 5 days, vs OVA-sensitized group, FIG. 10)	number of monocytes (MOs) ([1]; palmitic acid 5, 25, 50 mg/kg oral, 5 days, vs OVA-sensitized group, FIG. 12)	proliferation of leukocytes, neutrophils, lymphocytes and monocytes in BALF and serum [1]	mucus (PAS staining) (mucus; oleic acid 50, 125, 250 mg/kg oral, FIG. 17)	number of differential cells in BALF ([1]; oleic acid 50, 125, 250 mg/kg oral, 5 days, FIG. 1)	number of WBC cells ([1]; oleic acid 50, 125, 250 mg/kg oral, 5 days, vs OVA-sensitized group, FIG. 2)	number of eosinophils (EOs) ([1]; oleic acid 50, 125, 250 mg/kg oral, 5 days, vs OVA-sensitized group, FIG. 3)	number of neutrophils (NEs) ([1]; oleic acid 50, 125, 250 mg/kg oral, 5 days, vs OVA-sensitized group, FIG. 4)	number of lymphocytes (LYs) ([1]; oleic acid 50, 125, 250 mg/kg oral, 5 days, vs OVA-sensitized group, FIG. 5)	number of monocytes (MOs) ([1]; oleic acid 50, 125, 250 mg/kg oral, 5 days, vs OVA-sensitized group, FIG. 6)
CCCCCCCCCCCCCCCC(=O)O [palmitic acid]	dose-dependently decreased	dose-dependently decreased	dose-dependently decreased	dose-dependently decreased	dose-dependently decreased	inhibit							
CCCCCCCC/C=C\CCCCCCCC(=O)O [oleic acid]						inhibit	dose-dependently decreased	dose-dependently decreased	dose-dependently decreased	dose-dependently decreased	dose-dependently decreased	dose-dependently decreased	dose-dependently decreased
